Laboratory results as given in patent US5047397A, “Linear analogs of atrial natriuretic peptides” (California Biotechnology Inc., priority 1988, dated 1991).
Where a SMILES comes first, the peptide text is derived from it. Bridges are numbered along the chain shown (N, C = ends). [ ]: non-standard residue; d: D form. The star is where a group is joined. Acetyl(2-naphthyloxy) = O=C(COc1ccc2ccccc2c1)*; Acetyl(2-naphthyl) = O=C(Cc1ccc2ccccc2c1)*; Hydrocinnamoyl = O=C(CCc1ccccc1)*; Ava = NCCCCC(=O)O

Target: T1, specific ANP receptor sites on BASM or BAE cells (Bos taurus, UniProt P10730)
T1 construct: specific receptor sites on BASM or BAE cells; endogenous in cells; host or cells: cultured BASM and BAE cells
T1 sequence (P10730 42-537): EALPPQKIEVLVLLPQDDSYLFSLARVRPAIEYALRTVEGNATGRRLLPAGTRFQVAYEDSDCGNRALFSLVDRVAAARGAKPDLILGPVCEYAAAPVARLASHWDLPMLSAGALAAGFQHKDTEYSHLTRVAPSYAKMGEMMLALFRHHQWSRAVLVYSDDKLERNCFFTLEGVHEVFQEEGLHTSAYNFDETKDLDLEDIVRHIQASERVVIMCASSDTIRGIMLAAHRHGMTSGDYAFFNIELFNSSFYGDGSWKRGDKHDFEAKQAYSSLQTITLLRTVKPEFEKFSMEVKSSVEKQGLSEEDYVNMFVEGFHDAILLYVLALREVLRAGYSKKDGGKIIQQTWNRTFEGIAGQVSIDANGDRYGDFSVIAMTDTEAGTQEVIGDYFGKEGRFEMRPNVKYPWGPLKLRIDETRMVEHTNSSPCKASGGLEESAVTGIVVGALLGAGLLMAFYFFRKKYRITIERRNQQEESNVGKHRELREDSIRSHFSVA
Test: Competitive displacement receptor binding of (125I)-rANP(126-150) on cultured cells
Parameters: species or system bovine
Settings: for Ki(app): concentration of unlabeled peptide displacing 50% of maximal binding of 0.5 nM (125I)-rANP(126-150), BASM or BAE cells
Description: Analogous "competitive displacement" receptor binding assays are considered commonplace in the art for examining specific ligand-receptor interactions.
Assuming these ANP analogs act at one or more ANP receptor sites, then increased receptor affinity should reflect increased biological potency.

Compound | Ki (Table 2A, unit not given, in nM) | Ki(app) [nM]
CC[C@H](C)[C@@H]1NC(=O)[C@H](CCCNC(=N)N)NC(=O)[C@H](CC(=O)O)NC(=O)[C@H]([C@@H](C)CC)NC(=O)[C@H](CCCNC(=N)N)NC(=O)CNC(=O)CNC(=O)[C@H](Cc2ccccc2)NC(=O)[C@@H](NC(=O)[C@H](CO)NC(=O)[C@H](CO)NC(=O)[C@@H](N)CCCNC(=N)N)CSSC[C@@H](C(=O)N[C@@H](CC(N)=O)C(=O)N[C@@H](CO)C(=O)N[C@@H](Cc2ccccc2)C(=O)N[C@@H](CCCNC(=N)N)C(=O)N[C@@H](Cc2ccc(O)cc2)C(=O)O)NC(=O)CNC1=O [AP21] (H-RSSCFGGRIDRIGCNSFRY-OH; disulfide 4-14) | 15.15 | –
CC[C@H](C)[C@@H]1NC(=O)[C@H](CCCNC(=N)N)NC(=O)[C@H](CC(=O)O)NC(=O)[C@H]([C@@H](C)CC)NC(=O)[C@H](CCCNC(=N)N)NC(=O)CNC(=O)CNC(=O)[C@@H](NC(=O)[C@H](CO)NC(=O)[C@H](CO)NC(=O)[C@@H](N)CCCNC(=N)N)CSSC[C@@H](C(=O)N[C@@H](CC(N)=O)C(=O)N[C@@H](CO)C(=O)N[C@@H](Cc2ccccc2)C(=O)N[C@@H](CCCNC(=N)N)C(=O)N[C@@H](Cc2ccc(O)cc2)C(=O)O)NC(=O)CNC(=O)[C@H](CC(C)C)NC(=O)CNC(=O)[C@H](CO)NC(=O)[C@H](CCC(N)=O)NC(=O)[C@H](C)NC(=O)CNC1=O [AP23, R--S--S--C--G--G--R--I--D--R--I--G--A--Q--S--G--L--G--C--N--S--F--R--Y] (H-RSSCGGRIDRIGAQSGLGCNSFRY-OH; disulfide 4-19) | – | 7.76
CC[C@H](C)[C@@H]1NC(=O)[C@H](CCCNC(=N)N)NC(=O)[C@H](CC(=O)O)NC(=O)[C@H]([C@@H](C)CC)NC(=O)[C@H](CCCNC(=N)N)NC(=O)CNC(=O)[C@@H](NC(=O)[C@H](CO)NC(=O)[C@H](CO)NC(=O)[C@@H](N)CCCNC(=N)N)CSSC[C@@H](C(=O)N[C@@H](CC(N)=O)C(=O)N[C@@H](CO)C(=O)N[C@@H](Cc2ccccc2)C(=O)N[C@@H](CCCNC(=N)N)C(=O)N[C@@H](Cc2ccc(O)cc2)C(=O)O)NC(=O)CNC(=O)[C@H](CC(C)C)NC(=O)CNC(=O)[C@H](CO)NC(=O)[C@H](CCC(N)=O)NC(=O)[C@H](C)NC(=O)CNC1=O [AP24, R--S--S--C--G--R--I--D--R--I--G--A--Q--S--G--L--G--C--N--S--F--R--Y] (H-RSSCGRIDRIGAQSGLGCNSFRY-OH; disulfide 4-18) | – | 25.2
CC[C@H](C)[C@H](NC(=O)[C@H](CCCNC(=N)N)NC(=O)[C@H](CC(=O)O)NC(=O)[C@@H](NC(=O)[C@H](CCCNC(=N)N)NC(=O)CNC(=O)CNC(=O)CCc1ccccc1)[C@@H](C)CC)C(=O)NCC(=O)N[C@@H](C)C(N)=O [AP130, (desNH2 --F)--G--G--R--I--D--R--I--G--A--NH2] (Hydrocinnamoyl-GGRIDRIGA-NH2) | – | 8.8
CC[C@H](C)[C@H](NC(=O)[C@H](CCCNC(=N)N)NC(=O)[C@H](CC(=O)O)NC(=O)[C@@H](NC(=O)[C@H](CCCNC(=N)N)NC(=O)CNC(=O)CNC(=O)CCc1ccccc1)[C@@H](C)CC)C(N)=O [AP132, (desNH2 --F)--G--G--R--I--D--R--I--NH2] (Hydrocinnamoyl-GGRIDRI-NH2) | – | 10.15
CC[C@H](C)[C@H](NC(=O)[C@H](CCCNC(=N)N)NC(=O)[C@H](CC(=O)O)NC(=O)[C@@H](NC(=O)[C@H](CCCNC(=N)N)NC(=O)CNC(=O)[C@@H](C)NC(=O)[C@H](Cc1ccccc1)NC(=O)[C@H](C)N)[C@@H](C)CC)C(=O)NCC(=O)N[C@@H](C)C(N)=O [AP133, A--F--A^ --G--R--I--D--R--I--G--A--NH2] (H-AF[dA]GRIDRIGA-NH2) | – | 2.93
CC[C@H](C)[C@H](NC(=O)[C@H](CCCNC(=N)N)NC(=O)[C@H](CC(=O)O)NC(=O)[C@@H](NC(=O)[C@H](CCCNC(=N)N)NC(=O)CNC(=O)CNC(=O)[C@@H](Cc1ccccc1)NC(=O)[C@H](C)N)[C@@H](C)CC)C(=O)NCC(=O)N[C@@H](C)C(N)=O [AP151, A--F^ --G--G--R--I--D--R--I--G--A--NH2] (H-A[dF]GGRIDRIGA-NH2) | – | 39.6
CC[C@H](C)[C@H](NC(=O)[C@H](CCCNC(=N)N)NC(=O)[C@H](CC(=O)O)NC(=O)[C@@H](NC(=O)[C@H](CCCNC(=N)N)NC(=O)[C@@H](C)NC(=O)CNC(=O)[C@H](Cc1ccccc1)NC(=O)[C@H](C)N)[C@@H](C)CC)C(=O)NCC(=O)N[C@@H](C)C(N)=O [AP157, A--F--G--A^ --R--I--D--R--I--G--A--NH2] (H-AFG[dA]RIDRIGA-NH2) | – | 5.90
CC[C@H](C)[C@H](NC(=O)[C@H](CCCNC(=N)N)NC(=O)[C@H](CC(=O)O)NC(=O)[C@@H](NC(=O)[C@@H](CCCNC(=N)N)NC(=O)CNC(=O)CNC(=O)[C@H](Cc1ccccc1)NC(=O)[C@H](C)N)[C@@H](C)CC)C(=O)NCC(=O)N[C@@H](C)C(N)=O [AP301, A--F--G--G--R^ --I--D--R--I--G--A--NH2] (H-AFGG[dR]IDRIGA-NH2) | – | > 200
CC[C@@H](C)[C@@H](NC(=O)[C@H](CCCNC(=N)N)NC(=O)CNC(=O)CNC(=O)[C@H](Cc1ccccc1)NC(=O)[C@H](C)N)C(=O)N[C@@H](CC(=O)O)C(=O)N[C@@H](CCCNC(=N)N)C(=O)N[C@H](C(=O)NCC(=O)N[C@@H](C)C(N)=O)[C@@H](C)CC [AP302, A--F--G--G--R--I^ --D--R--I--G--A--NH2] (H-AFGGR[dI]DRIGA-NH2) | – | 18.9
CC[C@H](C)[C@H](NC(=O)[C@H](CCCNC(=N)N)NC(=O)[C@@H](CC(=O)O)NC(=O)[C@@H](NC(=O)[C@H](CCCNC(=N)N)NC(=O)CNC(=O)CNC(=O)[C@H](Cc1ccccc1)NC(=O)[C@H](C)N)[C@@H](C)CC)C(=O)NCC(=O)N[C@@H](C)C(N)=O [AP303, A--F--G--G--R--I--D^ --R--I--G--A--NH2] (H-AFGGRI[dD]RIGA-NH2) | – | > 200
CC[C@H](C)[C@H](NC(=O)[C@H](CCCNC(=N)N)NC(=O)CNC(=O)CNC(=O)[C@H](Cc1ccccc1)NC(=O)[C@H](C)N)C(=O)N[C@@H](CC(=O)O)C(=O)N[C@H](CCCNC(=N)N)C(=O)N[C@H](C(=O)NCC(=O)N[C@@H](C)C(N)=O)[C@@H](C)CC [AP304, A--F--G--G--R--I--D--R^ --I--G--A--NH2] (H-AFGGRID[dR]IGA-NH2) | – | 95.6
CC[C@@H](C)[C@@H](NC(=O)[C@H](CCCNC(=N)N)NC(=O)[C@H](CC(=O)O)NC(=O)[C@@H](NC(=O)[C@H](CCCNC(=N)N)NC(=O)CNC(=O)CNC(=O)[C@H](Cc1ccccc1)NC(=O)[C@H](C)N)[C@@H](C)CC)C(=O)NCC(=O)N[C@@H](C)C(N)=O [AP305, A--F--G--G--R--I--D--R--I^ --G--A--NH2] (H-AFGGRIDR[dI]GA-NH2) | – | 70.62
CC[C@H](C)[C@H](NC(=O)[C@H](CCCNC(=N)N)NC(=O)[C@H](CC(=O)O)NC(=O)[C@@H](NC(=O)[C@H](CCCNC(=N)N)NC(=O)CNC(=O)CNC(=O)Cc1ccc2ccccc2c1)[C@@H](C)CC)C(=O)NCC(=O)N[C@@H](C)C(N)=O [AP306, (2--Naphthylacetyl)-G-G-R-I-D-R-I-G-A-NH2] ({Acetyl(2-naphthyl)}-GGRIDRIGA-NH2) | – | 2.03
CC[C@H](C)[C@H](NC(=O)[C@H](CCCNC(=N)N)NC(=O)[C@H](CC(=O)O)NC(=O)[C@@H](NC(=O)[C@H](CCCNC(=N)N)NC(=O)CCCCNC(=O)COc1ccc2ccccc2c1)[C@@H](C)CC)C(N)=O [AP307, (2-Naphthoxyacetyl)-NH(CH2)4 CO-R-I-D-R-I-NH2] ({Acetyl(2-naphthyloxy)-Ava}-RIDRI-NH2) | – | 39.9
